Data reported in patent publication US20060128763A1 (priority 2003, published 2006).

How the values were obtained:
physchem = details: water, thermodynamic from solid
Description: The measurement was performed according to the procedure described in the Korean Pharmacopoeia (Korean Ministry of Health and Welfare, General principle of medical supplies, Vol. 1, Clause 29, the 7th revision) which comprises the steps of dissolving each compound in distilled water to saturation, analyzing the saturated solution with liquid chromatography, and measuring the dissolved amount of each compound based on the amount of amlodipine.

[1] = DSC scan, FIGS. 3 and 4

solubility (physchem)	thermodynamic stability (DSC absorption peak temperature compared with the crystalline form) [1]	Structure (SMILES)
2350 µg/mL		CCOC(=O)C1=C(COCCN)NC(C)=C(C(=O)OC)C1c1ccccc1Cl (centres unmarked) [Crystalline amlodipine besylate, amlodipine benzenesulfonate]
	sufficient thermodynamic stability	CC1(C)[C@@H]2CC[C@@]1(CS(=O)(=O)O)C(=O)C2.CCOC(=O)C1=C(COCCN)NC(C)=C(C(=O)OC)C1c1ccccc1Cl (centres unmarked) [Amorphous amlodipine camsylate, amorphous amlodipine camsylate]
